Common to all, as to type: in vivo
The test system of assay [1] is larvae of the banded cucumber beetle (Diabrotica balteata). Kind of assay: Diabrotica balteata spray test. The settings on record: 168 h, 100 g/ha (=32 μg/well), after 7 days, read-out: efficacy (seedling growth). A digest of the protocol:
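Efficacy is seedling survival after 7 days, where 0% means no seedlings grew and 100% means growth equal to untreated, uninfested controls. Wheat seedlings, germinated on agar for 1 day, were sprayed with the aqueous emulsifier dilution (acetone/DMF solvent) and then exposed to 10–20 banded cucumber beetle larvae.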

Assay [2] concerns green peach aphid (Myzus persicae). Kind of assay: Myzus persicae spray test (MYZUPE). The settings on record: 120 h, 100 g/ha, after 5 days. The essentials:
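Percent aphid kill, with 0% meaning none killed, was read 5 days after spraying. The preparation (acetone–DMF solvent, water with 1000 ppm emulsifier) was applied to Brassica pekinensis leaf disks carrying mixed-instar green peach aphids.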

The subject of assay [3] is larvae of the southern green stink bug (Nezara viridula). Kind of assay: whole plant or invertebrate. The settings on record: 96 h. The essentials: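 Percent mortality of southern green stink bug larvae was recorded at day 4, with 100% meaning all dead. The larvae were placed on barley sprayed with the test solution. That solution was prepared from acetone/dimethylformamide concentrate diluted in emulsifier-containing water (1000 ppm).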

Assay [4] has as its system brown planthopper (Nilaparvata lugens). The experiment in a line: Nilaparvata lugens spray test. The settings on record: 96 h. The essentials: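 Rice plants (Oryza sativa) sprayed with compound formulated in acetone/DMF with alkylarylpolyglycol ether emulsifier (1000 ppm in diluting water), then infested with planthoppers. Mortality (%) scored after 4 days; 100% = all insects killed, 0% = none killed.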

In assay [5] the test system is fall armyworm larvae (Spodoptera frugiperda). Kind of assay: whole plant or invertebrate. The settings on record: 168 h. A digest of the protocol: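 Percent kill of Spodoptera frugiperda caterpillars, read 7 days after infestation of dried, spray-treated Zea mays leaf pieces. Spray preparation: compound in acetone plus dimethylformamide, diluted with emulsifier-containing water.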

Assay [6] relates to adult mosquitoes Aedes aegypti strain MONHEIM. Kind of assay: Aedes aegypti test (AEDSAE surface treatment & contact assay). The settings on record: 24 hours after contact, read-out: efficacy (mortality); for mortality at 4 mg/m2: surface concentration 4 mg/m^2, 30 min exposure; for mortality at 20 mg/m2: surface concentration 20 mg/m^2, 30 min exposure. The protocol:
Aedes aegypti Test (AEDSAE Surface Treatment & Contact Assay)
(§1) Solvent: Aceton+2000 ppm rapeseed oil methyl ester (RME)
This solution is pipetted onto a glazed tile and after evaporation of the acetone, adult mosquitoes of the species Aedes aegypti strain MONHEIM are placed onto the dried surface. The exposure time is 30 minutes. Mortality in percent (%) is determined 24 hours after contact of the insects to the treated surface. 100% mortality means that all tested insects are dead, whereas 0% means that no insect died.

Assay [7] concerns adult mosquitoes Culex quinquefasciatus strain P00. Kind of assay: Culex quinquefasciatus test (CULXFA surface treatment & contact assay). The settings on record: 24 hours after contact, read-out: efficacy (mortality); for mortality at 4 mg/m2: surface concentration 4 mg/m^2, 30 min exposure; for mortality at 20 mg/m2: surface concentration 20 mg/m^2, 30 min exposure. The method, then:
Culex quinquefasciatus Test (CULXFA Surface Treatment & Contact Assay)
as §1
This solution is pipetted onto a glazed tile and after evaporation of the acetone, adult mosquitoes of the species Culex quinquefasciatus strain P00 are placed onto the dried surface. The exposure time is 30 minutes. Mortality in percent (%) is determined 24 hours after contact of the insects to the treated surface. 100% mortality means that all tested insects are dead, whereas 0% means that no insect died.

Assay [8] relates to adult flies Musca domestica strain WHO-N. Kind of assay: Musca domestica test (MUSCDO surface treatment & contact assay). The settings on record: 24 hours after contact, read-out: efficacy (mortality); for mortality at 4 mg/m2: surface concentration 4 mg/m^2, 30 min exposure; for mortality at 20 mg/m2: surface concentration 20 mg/m^2, 30 min exposure. The method, then: Musca domestica Test (MUSCDO Surface Treatment & Contact Assay)
as §1
This solution is pipetted onto a glazed tile and after evaporation of the acetone, adult flies of the species Musca domestica strain WHO-N are placed onto the dried surface. The exposure time is 30 minutes. Mortality in percent (%) is determined 24 hours after contact of the insects to the treated surface. 100% mortality means that all tested insects are dead, whereas 0% means that no insect died.

Assay [9] relates to adult animals Blattella germanica strain PAULINIA
Kind of assay: Blattella germanica test (BLTTGE surface treatment & contact assay). The settings on record: 24 hours after contact, read-out: efficacy (mortality); for mortality at 4 mg/m2: surface concentration 4 mg/m^2, 30 min exposure; for mortality at 20 mg/m2: surface concentration 20 mg/m^2, 30 min exposure. The method, then:
Blattella germanica Test (BLTTGE Surface Treatment & Contact Assay)
as §1
In order to produce a sufficient, active ingredient containing solution it is necessary to solve the test compound in the solvent-mix (acetone at 2 mg/ml/RME 2000 ppm). This solution is pipetted onto a glazed tile and after evaporation of the acetone, adult animals of the species Blattella germanica strain PAULINIA are placed onto the dried surface. The exposure time is 30 minutes.
Mortality in percent (%) is determined 24 hours after contact of the insects to the treated surface. 100% mortality means that all tested insects are dead, whereas 0% means that no insect died.

The subject of assay [10] is cattle tick larvae (Rhipicephalus microplus), strain Parkhurst, resistant against synthetic pyrethroids. Kind of assay: Rhipicephalus (Boophilus) microplus in-vitro contact test, larval cattle tick. The settings on record: 5 μg/cm^2 (=500 g/ha), after 48 hours. A digest of the protocol:
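Compound in acetone coated onto the inner walls of glass tubes (900 ppm giving 5 μg/cm^2), solvent evaporated, then 20–50 larvae added and held at 27 °C, 85% RH. After 48 h, efficacy scored from negative geotactic behaviour as % dead or moribund larvae.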

Assay [11] relates to adult cat fleas (Ctenocephalides felis). The experiment in a line: Ctenocephalides felis in-vitro contact test, adult cat flea. The settings on record: 5 μg/cm^2 (=500 g/ha), after 48 hours. A digest of the protocol: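 After 48 h of room-temperature exposure in tubes whose walls carried dried compound residue (5 μg/cm^2, from 900 ppm acetone solution), adult cat fleas (5-10 per tube) were heat-challenged at 45-50° C up to 5 min. Fleas unable to climb away were counted dead or moribund, expressed as % efficacy.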

The subject of assay [12] is adult brown dog ticks (Rhipicephalus sanguineus). The experiment in a line: Rhipicephalus sanguineus in-vitro contact test, adult brown dog ticks. The settings on record: 48 h, read-out: efficacy (ticks dead or moribund). A digest of the protocol:
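Contact exposure: dried compound film inside glass tubes, dose 5 μg/cm^2 at 900 ppm, 5-10 adults per tube at room temperature. Scored at 48 h via a heat-escape test on a 45-50° C plate for up to 5 min.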

Turning to `C[C@H](NC(=O)c1cc(OC(F)F)cc(OC(F)F)c1)c1ncnn1-c1cc(C(N)=O)ncn1` [I-93], the pest or weed control at 32 µg/disc, 100 g/ha in assay [1] amounted to 100%. Also, the mortality at 100 g/ha in [2] and in assay [5] was 100% in each case. The mortality at 500 g/ha in assay [3] and in [4] was 100% throughout. The mortality at 4 mg/m2 in assay [6], in assay [7], in assay [8] and in assay [9] was 80 to 100% in each case. Also, the mortality at 20 mg/m2 in [6], in assay [7], in [8] and in assay [9] was 80 to 100% in each case.
Turning to `CNC(=O)c1cc(-n2ncnc2[C@H](C)NC(=O)c2cc(Br)cc(OC(F)(F)F)c2)ncn1` [I-74], the “efficacy (larvae dead or moribund)” value in assay [10] is on record as 100%. Further, the “efficacy (fleas dead or moribund)” value in [11] was 100%. Also, the pest or weed control at 5 µg/cm2, 500 g/ha in assay [12] amounted to 100%. Besides, the pest or weed control at 32 µg/disc, 100 g/ha in [1] was 80%. Further, the values for the mortality at 100 g/ha in [2] and in [5] were 90% and 100%, respectively. The mortality at 500 g/ha in assay [3] and in assay [4] was 100% each time. For the same compound, the mortality at 4 mg/m2 in assay [6], in assay [7], in assay [8] and in assay [9] was 80 to 100% in each case. Besides, the mortality at 20 mg/m2 in assay [6], in [7], in assay [8] and in assay [9] was 80 to 100% each time.
Take `C[C@H](NC(=O)c1cc(Br)cc(OC(F)(F)F)c1)c1ncnn1-c1cc(C(N)=O)ncn1` [I-21]: the “efficacy (larvae dead or moribund)” value in assay [10] was determined as 100%. For the same compound, in assay [11], the “efficacy (fleas dead or moribund)” value was determined as 100%. The pest or weed control at 5 µg/cm2, 500 g/ha in [12] amounted to 100%. Besides, the pest or weed control at 32 µg/disc, 100 g/ha in assay [1] amounted to 100%. The mortality at 100 g/ha was 90% in [2], 100% in assay [3] and 100% in assay [5]. The compound also had a mortality at 500 g/ha in [3] of 100%. Further, the mortality at 4 mg/m2 in assay [6], in [7], in assay [8] and in assay [9] was 80 to 100% in each case. The mortality at 20 mg/m2 in assay [6], in [8] and in assay [9] was 80 to 100% in each case.
With `CNC(=O)c1cc(-n2ncnc2[C@H](C)NC(=O)c2cc(OC(F)(F)F)cc(S(=O)(=O)C(F)(F)F)c2)ncn1` [I-90], the pest or weed control at 32 µg/disc, 100 g/ha in assay [1] turned out to be 100%. The mortality at 100 g/ha in assay [2] and in assay [5] was 100% each time. Also, the mortality at 500 g/ha in assay [3] came to 100%; in [4], 90%. Besides, the mortality at 4 mg/m2 in assay [6], in assay [7] and in [8] was 80 to 100% throughout. For the same compound, the mortality at 20 mg/m2 in assay [6], in assay [7], in assay [8] and in [9] was 80 to 100% throughout.
On to `CNC(=O)c1cc(-n2ncnc2[C@H](C)NC(=O)c2cc(Cl)cc(OC(F)(F)F)c2)ncn1` [I-73], for which, in [10], the “efficacy (larvae dead or moribund)” value was 100%. Besides, the “efficacy (fleas dead or moribund)” value in assay [11] worked out at 100%. Also, in assay [12], the pest or weed control at 5 µg/cm2, 500 g/ha was determined as 100%. Also, in assay [1], the pest or weed control at 32 µg/disc, 100 g/ha is 100%. In addition, the results for the mortality at 100 g/ha in assay [2] and in assay [5] were 70% and 100%, respectively. The mortality at 500 g/ha in [3] and in assay [4] was 100% throughout. Besides, the mortality at 4 mg/m2 in assay [6], in [7], in assay [8] and in assay [9] was 80 to 100% throughout. Moreover, the mortality at 20 mg/m2 in [6], in [7], in [8] and in [9] was 80 to 100% in each case.
For `C[C@H](NC(=O)c1cc(OC(F)(F)F)cc(OC(F)(F)F)c1)c1ncnn1-c1cc(C(N)=O)ncn1` [I-102], the “efficacy (larvae dead or moribund)” value in [10] is reported as 100%. Besides, in assay [11], the “efficacy (fleas dead or moribund)” value came to 100%. Besides, the pest or weed control at 5 µg/cm2, 500 g/ha in assay [12] came to 80%. Moreover, the pest or weed control at 32 µg/disc, 100 g/ha in assay [1] was determined as 100%. For the same compound, the mortality at 100 g/ha in [2] and in [5] was 100% in each case. Also, the mortality at 500 g/ha in assay [3] turned out to be 100%; in assay [4], 90%. For the same compound, the mortality at 4 mg/m2 in [6], in assay [7], in assay [8] and in assay [9] was 80 to 100% throughout. In addition, the mortality at 20 mg/m2 in assay [6], in [7], in [8] and in [9] was 80 to 100% in each case.
`C[C@H](NC(=O)c1cc(Br)cc(OC(F)F)c1)c1ncnn1-c1cc(C(N)=O)ncn1` [I-51]: in assay [10], the “efficacy (larvae dead or moribund)” value is on record as 100%. The “efficacy (fleas dead or moribund)” value in [11] is given as 100%. Further, the pest or weed control at 5 µg/cm2, 500 g/ha in assay [12] came out at 100%. The pest or weed control at 32 µg/disc, 100 g/ha in assay [1] turned out to be 100%. Also, the mortality at 100 g/ha in [2] was found to be 90%; in assay [3] it was 100%; in [5], 100%. The mortality at 500 g/ha in [3] and in assay [4] was 100% in each case. Moreover, the mortality at 4 mg/m2 in assay [6], in assay [7], in assay [8] and in assay [9] was 80 to 100% in each case. Besides, the mortality at 20 mg/m2 in assay [6], in [7], in assay [8] and in [9] was 80 to 100% each time.
For the compound `C[C@H](NC(=O)c1cc(Cl)cc(OC(F)(F)F)c1)c1ncnn1-c1cc(C(N)=O)ncn1` [I-49], the “efficacy (larvae dead or moribund)” value in assay [10] was found to be 100%. In assay [11], the “efficacy (fleas dead or moribund)” value turned out to be 100%. The pest or weed control at 5 µg/cm2, 500 g/ha in assay [12] was 80%. Further, the pest or weed control at 32 µg/disc, 100 g/ha in assay [1] stood at 100%. Moreover, the mortality at 100 g/ha in assay [2], in [3] and in assay [5] was 100% in each case. The mortality at 500 g/ha in assay [3] and in assay [4] was 100% in each case. In addition, the mortality at 4 mg/m2 in assay [6], in [7], in assay [8] and in assay [9] was 80 to 100% in each case. Moreover, the mortality at 20 mg/m2 in assay [6], in assay [7], in assay [8] and in assay [9] was 80 to 100% in each case.

One may read the mortality as the share of the test organisms that died.
